“Also recorded” adds a separate entry of the source. Where two headings read alike, the source gives them in different places.
Experiments:
[1] = system: primary adult rat ventricular cardiomyocytes; assay: DNA synthesis (BrdU uptake, immunofluorescence) in primary adult rat ventricular cardiomyocytes; assay type: cell-based; design: inhibition of periostin-stimulated DNA synthesis by integrin antibodies: dose or concentration left out as unconfirmed; conditions: for inhibition of periostin-induced DNA synthesis / cell-cycle reentry by kinase inhibitors / inhibition of neuregulin-induced cell-cycle reentry: PD98059 1 mM; for inhibition of periostin-induced DNA synthesis / cell-cycle reentry by kinase inhibitors: U0126 10 mM, LY294002 10 mM, SH-6 10 mM, Akt1/2 inhibitor 1 mM [sic]; for inhibition of neuregulin-induced cell-cycle reentry: U0126 10 mM as printed
Description: Primary neonatal rat ventricular cardiomyocytes were isolated using the Neomyts kit (Cellutron, Highland Park, N.J.), seeded at a density of 10^5 cells/cm^2 onto gelatin-coated cover slips, stimulated for 3 days, and labeled with BrdU for the terminal 2 days. Primary adult ventricular cardiomyocytes were isolated from male (300 gm) Wistar rats (Charles River Laboratories) and maintained as described (Engel, F. B. et al. p38 MAP kinase inhibition enables proliferation of adult mammalian cardiomyocytes. Genes Dev 19, 1175-87 (2005)). Adult cardiomyocytes were stimulated daily for 9 days and labeled with 30 μM BrdU for the terminal 3 days. Cardiomyocytes were stimulated with periostin (500 ng/mL) and FGF (100 ng/mL). […] The vehicle used to dissolve factors or chemicals was added to unstimulated samples, which were then processed together with the test samples. DNA-synthesis was analyzed by visualization of BrdU uptake and cytokinesis was determined by detection of the cleavage furrow and the midbody with an antibody against aurora B kinase as described (Engel, F. B. et al. p38 MAP kinase inhibition enables proliferation of adult mammalian cardiomyocytes. Genes Dev 19, 1175-87 (2005)). Signals were visualized with secondary antibodies conjugated to Alexa 488, Alexa 546, Alexa 594, and Alexa 647 (Invitrogen). […] For image acquisition, the value for γ was set at 1 and the lookup table settings were linear. Primary adult rat ventricular cardiomyocytes were grown on gridded cover slips (Electron Microscopy Services, Ft. Washington, Pa.) and imaged in phase contrast at 10× magnification. Cardiomyocytes were transduced with an adenovirus leading to nuclear expression of histone2B-GFP (Shi, Q. & King, R. W. Nature 437, 1038-42 (2005)) under control of the chicken troponin T promoter ([…]. Am J Physiol Cell Physiol 286, […]-64 (2004)). Nuclei were visualized at 10× magnification with a mercury-arc lamp dimmed to 1.5% with a neutral density filter. […] Images of BrdU-positive cardiomyocytes were matched with the corresponding images from before stimulation. For quantification, differentiated cardiomyocytes were defined as striated rod-shaped structures with length/width ratio>1.5.

[2] = system: primary neonatal rat ventricular cardiomyocytes; assay: DNA synthesis, mitosis and cytokinesis in primary neonatal rat ventricular cardiomyocytes; assay type: cell-based; conditions: for inhibition of periostin-stimulated DNA synthesis by integrin blockers: cRGD 10 μM, antibodies 10 μg/mL; for induction of cardiomyocyte DNA synthesis: FIG. 2d, 2e
Description: Primary neonatal rat ventricular cardiomyocytes were isolated using the Neomyts kit (Cellutron, Highland Park, N.J.), seeded at a density of 10^5 cells/cm^2 onto gelatin-coated cover slips, stimulated for 3 days, and labeled with BrdU for the terminal 2 days. Primary adult ventricular cardiomyocytes were isolated from male (300 gm) Wistar rats (Charles River Laboratories) and maintained as described (Engel, F. B. et al. p38 MAP kinase inhibition enables proliferation of adult mammalian cardiomyocytes. Genes Dev 19, 1175-87 (2005)). Adult cardiomyocytes were stimulated daily for 9 days and labeled with 30 μM BrdU for the terminal 3 days. Cardiomyocytes were stimulated with periostin (500 ng/mL) and FGF (100 ng/mL). Inhibiting antibodies were added at a concentration of 10 μg/mL, cRGD at 10 μM, U0126 at 10 μM, PD98059 at 1 μM, LY294002 at 10 μM, and Wortmannin at 0.1 μM 30 min prior to stimulation. The vehicle used to dissolve factors or chemicals was added to unstimulated samples, which were then processed together with the test samples.
DNA-synthesis was analyzed by visualization of BrdU uptake and cytokinesis was determined by detection of the cleavage furrow and the midbody with an antibody against aurora B kinase as described (Engel, F. B. et al. p38 MAP kinase inhibition enables proliferation of adult mammalian cardiomyocytes. Genes Dev 19, 1175-87 (2005)). Signals were visualized with secondary antibodies conjugated to Alexa 488, Alexa 546, Alexa 594, and Alexa 647 (Invitrogen). Nuclei were visualized with 4′,6′-diamidino-2-phenylindole (DAPI, Invitrogen). For image acquisition, the value for γ was set at 1 and the lookup table settings were linear.

[3] = system: primary neonatal rat ventricular cardiomyocytes; assay: Cardiomyocyte proliferation by cell count (hemocytometer); assay type: cell-based; conditions: for inhibition of periostin-stimulated proliferation by ERK and PI3-kinase inhibitors: U0126 10 μM, PD98059 1 μM, LY294002 10 μM, Wortmannin 0.1 μM; for inhibition of periostin-stimulated proliferation by integrin blockers: cRGD 10 μM, antibodies 10 μg/mL
Method: To determine cardiomyocyte proliferation, primary neonatal rat ventricular cardiomyocytes were quantified by counting with a hemocytometer after 3 days and 6 days of stimulation. To determine cardiomyocyte survival, primary neonatal rat ventricular cardiomyocytes were pre-treated with 500 ng/mL periostin or buffer for 30 min and then exposed to 0.5 μM doxycycline or 100 ng/mL TNFα for 24 hr and quantified by counting. Corresponding samples were stained with an antibody directed against tropomyosin as a cardiomyocyte marker to control for the percentage of differentiated cardiomyocytes. Apoptotic cardiomyocyte nuclei were determined after 24 hr with the In situ Cell Death Detection Kit (Roche, Indianapolis, Ind.) in combination with staining for troponin I.

[4] = system: Adult male Sprague-Dawley rats; assay: Cardiomyocyte cell cycle activity in vivo after intramyocardial injection; design: species or system rat; LVFW CM nuclei: unit not given here
Method: Experiments were performed in accordance with institutional guidelines of Massachusetts General Hospital. Injections and analyses were performed in a blinded fashion. Adult male Sprague-Dawley rats (300 gm, Charles River Laboratories) underwent thoracotomy and received intramyocardial injections of 50 μg of recombinant human periostin consisting of the fas1-4 domains, 50 μg of rat fibronectin, or 100 μL of 100 mM sodium acetate as a control (5 rats per group). The survival rate for this procedure was 80%. Injected periostin was confirmed by detection with a polyclonal antibody directed against human periostin (Abcam) and visualized by immunofluorescence microscopy. Intraperitoneal injections of BrdU (70 μmol/kg body weight) with a tissue half life of 2 hr were given every 48 hr, and rats were sacrificed after the third injection. Horizontal cryosections of 14 μm thickness spaced at 1 mm intervals were analyzed by laser scanning immunofluorescence microscopy. BrdU-positive cardiomyocyte nuclei and cytokineses were quantified on 16-20 sections per heart. Fibrosis and cardiomyocyte cross-sectional area were determined on 5 Masson's Trichrome-stained sections at the level of the injection at 40× magnification and quantified using the Metamorph software package (Molecular Devices Corp., Downingtown, Pa.).

[5] = U0126 10 μM, PD98059 1 μM, LY294002 10 μM, Wortmannin 0.1 μM
[6] = 1 week after intracardiac injection

O.O=C(O)C(F)(F)F.O=c1[nH]c2ccccc2n1C1CCN(Cc2ccc(-c3nc4cc5[nH]cnc5cc4nc3-c3ccccc3)cc2)CC1 [Akt1/2 inhibitor]
inhibition of periostin-induced DNA synthesis / cell-cycle reentry by kinase inhibitors ([1]; differentiated cardiomyocytes): reduced

COc1cccc(-c2cc(=O)c3ccccc3o2)c1N [PD98059]
inhibition of neuregulin-induced cell-cycle reentry ([1]; differentiated cardiomyocytes): inhibited | inhibition of periostin-induced DNA synthesis / cell-cycle reentry by kinase inhibitors ([1]; differentiated cardiomyocytes): did not reduce; also recorded: did not block | inhibition of periostin-stimulated DNA synthesis by ERK and PI3-kinase inhibitors [2, 5]: inhibited only by blocking Akt activation | inhibition of periostin-stimulated cytokinesis by ERK and PI3-kinase inhibitors [2, 5]: inhibited | inhibition of periostin-stimulated proliferation by ERK and PI3-kinase inhibitors [3]: inhibited

C[S+]([O-])c1ccc(-c2nc(-c3ccncc3)c(-c3ccc(F)cc3)[nH]2)cc1 (stereo not shown) [SB203580]
effect on periostin-induced cardiomyocyte DNA synthesis when added ([1]; FGF 100 ng/ml, SB203580 5 mM or 10 mM as printed): no additional effect

N#CC(=C(/N)Sc1ccccc1N)/C(C#N)=C(\N)Sc1ccccc1N [U0126]
inhibition of neuregulin-induced cell-cycle reentry ([1]; differentiated cardiomyocytes): inhibited | inhibition of periostin-induced DNA synthesis / cell-cycle reentry by kinase inhibitors ([1]; differentiated cardiomyocytes): did not reduce; also recorded: did not block | inhibition of periostin-stimulated DNA synthesis by ERK and PI3-kinase inhibitors [2]: inhibited only by blocking Akt activation | inhibition of periostin-stimulated cytokinesis by ERK and PI3-kinase inhibitors [2]: inhibited | inhibition of periostin-stimulated proliferation by ERK and PI3-kinase inhibitors [3]: inhibited

Cyclic Arg-Gly-Asp [cRGD]
inhibition of periostin-stimulated DNA synthesis by integrin blockers [2]: inhibited; also recorded: blocked | inhibition of periostin-stimulated proliferation by integrin blockers [3]: blocked

Fibronectin: Rat fibronectin from Biomedical Technologies; extracellular matrix component [reference compound]
induction of cardiomyocyte DNA synthesis [2]: did not induce DNA synthesis | LVFW BrdU-positive CM nuclei [4, 6]: 0.002 ± 0.0004% | LVFW CM nuclei [4, 6]: 10.7 ± 0.4 10^$$ per heart | LVFW BrdU-positive CM nuclei ([4]; 1 week after intracardiac injection, 3 BrdU injections): 273.6 ± 42.8 per heart | LVFW myocardial volume ([4]; 1 week after intracardiac injection, 50 μg periostin (fas1-4 domains) or 50 μg rat fibronectin): 224 ± 6 mm^3 | cardiomyocyte DNA synthesis in vivo ([4]; FIG. 4c): did not increase | cardiomyocyte cytokinesis in vivo ([4]; FIG. 4d): did not increase

SH-6
inhibition of periostin-induced DNA synthesis / cell-cycle reentry by kinase inhibitors ([1]; differentiated cardiomyocytes): reduced

collagen: type 1 rat collagen, extracellular matrix component known to activate integrins
induction of cardiomyocyte DNA synthesis [2]: did not induce DNA synthesis

integrin αV antibody: integrin αV (RMV-7) blocking antibody, BioLegend
inhibition of periostin-stimulated DNA synthesis by integrin antibodies ([1]; differentiated cardiomyocytes): inhibited | inhibition of periostin-stimulated DNA synthesis by integrin blockers [2]: inhibited | inhibition of periostin-stimulated proliferation by integrin blockers [3]: inhibited

B1: variant consisting of the 4 fas1 domains: periostin derivative consisting of 4 fas1 domains, purified from bacteria, molecular weight of 75 kDa (protein)
chain: NNHYDKILAHSRIRGRDQGPNVCALQQILGTKKKYFSTCKNWYKKSICGQKTTVLYECCPGYMRMEGMKGCPAVLPIDHVYGTLGIVGATTTQRYSDASKLREEIEGKGSFTYFAPSNEAWDNLDSDIRRGLESNVNVELLNALHSHMINKRMLTKDLKNGMIIPSMYNNLGLFINHYPNGVVTVNCARIIHGNQIATNGVVHVIDRVLTQIGTSIQDFIEAEDDLSSFRAAAITSDILEALGRDGHFTLFAPTNEAFEKLPRGVLERFMGDKVASEALMKYHILNTLQCSESIMGGAVFETLEGNTIEIGCDGDSITVNGIKMVNKKDIVTNNGVIHLIDQVLIPDSAKQVIELAGKQQTTFTDLVAQLGLASALRPDGEYTLLAPVNNAFSDDTLSMVQRLLKLILQNHILKVKVGLNELYNGQILETIGGKQLRVFVYRTAVCIENSCMEKGSKQGRNGAIHIFREIIKPAEKSLHEKLKQDKRFSTFLSLLEAADLKELLTQPGDWTLFVPTNDAFKGMTSEEKEILIRDKNALQNIILYHLTPGVFIGKGFEPGVTNILKTTQGSKIFLKEVNDTLLVNELKSKESDIMTTNGVIHVVDKLLYPADTPVGNDQLLEILNKLIKYIQIKFVRGSTFKEIPVTVY
induction of cardiomyocyte DNA synthesis [2]: stimulated DNA synthesis as effectively as FGF

B2: boiled periostin: boiled periostin used in control experiments to rule out a non-protein impurity (protein, UniProt Q15063 22-836, looked up)
Periostin: NNHYDKILAHSRIRGRDQGPNVCALQQILGTKKKYFSTCKNWYKKSICGQKTTVLYECCPGYMRMEGMKGCPAVLPIDHVYGTLGIVGATTTQRYSDASKLREEIEGKGSFTYFAPSNEAWDNLDSDIRRGLESNVNVELLNALHSHMINKRMLTKDLKNGMIIPSMYNNLGLFINHYPNGVVTVNCARIIHGNQIATNGVVHVIDRVLTQIGTSIQDFIEAEDDLSSFRAAAITSDILEALGRDGHFTLFAPTNEAFEKLPRGVLERIMGDKVASEALMKYHILNTLQCSESIMGGAVFETLEGNTIEIGCDGDSITVNGIKMVNKKDIVTNNGVIHLIDQVLIPDSAKQVIELAGKQQTTFTDLVAQLGLASALRPDGEYTLLAPVNNAFSDDTLSMDQRLLKLILQNHILKVKVGLNELYNGQILETIGGKQLRVFVYRTAVCIENSCMEKGSKQGRNGAIHIFREIIKPAEKSLHEKLKQDKRFSTFLSLLEAADLKELLTQPGDWTLFVPTNDAFKGMTSEEKEILIRDKNALQNIILYHLTPGVFIGKGFEPGVTNILKTTQGSKIFLKEVNDTLLVNELKSKESDIMTTNGVIHVVDKLLYPADTPVGNDQLLEILNKLIKYIQIKFVRGSTFKEIPVTVYTTKIITKVVEPKIKVIEGSLQPIIKTEGPTLTKVKIEGEPEFRLIKEGETITEVIHGEPIIKKYTKIIDGVPVEITEKETREERIITGPEIKYTRISTGGGETEETLKKLLQEEVTKVTKFIEGGDGHLFEDEEIKRLLQGDTPVRKLQANKKVQGSRRRLREGRSQ
modifications: heat-denatured
notes: boiled periostin used in control experiments to rule out a non-protein impurity
activation of the cardiomyocyte cell cycle ([2]; control for non-protein impurity): did not activate

— US8936806B2, “Periostin induces proliferation of cardiomyocytes and promotes cardiac regeneration” (Children's Medical Center Corporation, priority 2007, dated 2015)
